Test results taken from US5104870A, “Heterocyclic pharmaceutical compounds and use” (Burroughs Wellcome Co., priority 1989, dated 1992).
Structures can show the parent of a compound that is named as a salt.

Tested on: tetrabenazine-induced sedation
Experiment: Antitetrabenazine test (prevention of tetrabenazine-induced sedation)
Format: in vivo
Settings: Mus musculus, ip; CDl male mice; i.p. as hydrochloride salt in saline 30 min before tetrabenazine hydrochloride 35 mg/kg i.p.; exploratory behavior scored 30 min later; read-out: ED50 (amount of the test compound required to reverse the tetrabenazine effects in 50 percent of the animals tested)
Procedure: Prevention on of tetrabenazine-induced sedation was measured using a modification of the method of Vernier et al., First Hahnemann Symposium on Psychosomatic Medicine, ed. Nodim and Moyer, pub Lea and Febiger, Philadelphia. 1962.
Mice, groups of 12 CDl males each, were injected intraperitoneally (i.p.) with the hydrochloride salt of a compound of formula (I) in physiological saline solution or with physiological saline solution alone. Thirty minutes later each of the mice was injected (i.p.. 35 mg/kg) with a solution of tetrabenazine hydrochloride. Thirty minutes after the injection of tetrabenazine each mouse was examined for its level of exploratory behavior which was scored on a modification of the arbitrary scale defined by Vernier et al The result reported in Table I as the ED50 value is the amount of the test compound required to reverse the tetrabenazine effects in 50 percent of the animals tested.

Q: `C[C@@H]1CO[C@@](O)(c2cc(F)cc(F)c2)[C@H](C)N1C` [Example 3, (2S,3S,5R)-2-(3.5.Difluorophenyl)-3,4,5,trimethyl-2-morpholinol hydrochloride, one-quarter hydrate] was tested. Which ED50 did it give?
A: 0.6 mg/kg

Q: `C[C@@H]1CO[C@@](O)(c2cc(F)cc(F)c2)[C@H](C)N1.Cl` [Example 2, (2S,3S,5R)-2-(3,5-difluorophenyl)-3,5-dimethyl-2-morpholinol hydrochloride] was tested. Which ED50 did it give?
A: 5 mg/kg

Q: How did the ED50 turn out when `CCN1[C@H](C)CO[C@@](O)(c2cc(F)cc(F)c2)[C@@H]1C` [Example 5, (2S,3S,5R)-2-(3,5-Difluorophenyl)-4-ethyl-3,5-dimethyl-2-morpholinol hydrochloride, monohydrate] was run?
A: 3 mg/kg

Q: How did the ED50 turn out when `C[C@@H]1CO[C@@](O)(c2cc(F)cc(F)c2)[C@H](C)N1C` (relative stereo) [Example 4, (+-)-(2R*,3R*,5S*)-2-(3,5-Difluorophenyl)-3,4,5,trimethyl-2-morpholinol hydrochloride] was run?
A: 3 mg/kg

Q: Which ED50 does the source give for `C[C@H]1CO[C@](O)(c2cc(F)cc(F)c2)[C@@H](C)N1.Cl` (relative stereo) [Example 1, (+-)-(2R*,3R*,5S*)-2-(3,5-Difluorophenyl)-3,5-dimethyl-2-morpholinol hydrochloride] here?
A: 2 mg/kg
